Legend:
[1] = Inhibition of HIV1 reverse transcriptase Y181C mutant infected in human MT4 cells assessed as protection against virus-induced cytopathic effect by MTT assay
[2] = Inhibition of HIV1 LAI reverse transcriptase infected in human MT4 cells assessed as protection against virus-induced cytopathic effect by MTT assay
[3] = Inhibition of HIV1 reverse transcriptase Y188L mutant infected in human MT4 cells assessed as protection against virus-induced cytopathic effect by MTT assay
[4] = Inhibition of HIV1 reverse transcriptase K103N mutant infected in human MT4 cells assessed as protection against virus-induced cytopathic effect by MTT assay
[5] = Inhibition of HIV1 reverse transcriptase L100I mutant infected in human MT4 cells assessed as protection against virus-induced cytopathic effect by MTT assay
[6] = Inhibition of HIV1 reverse transcriptase K103N/Y188C double mutant infected in human MT4 cells assessed as protection against virus-induced cytopathic effect by MTT assay
[7] = Inhibition of HIV1 reverse transcriptase L100I/K103N double mutant infected in human MT4 cells assessed as protection against virus-induced cytopathic effect by MTT assay
[8] = Inhibition of HIV1 3B reverse transcriptase infected in human MT2 cells assessed as protection against virus-induced cytopathic effect by MTT assay
[9] = Inhibition of HIV1 reverse transcriptase K103N/Y181C double mutant infected in human MT2 cells assessed as protection against virus-induced cytopathic effect by MTT assay
[10] = Inhibition of HIV1 reverse transcriptase Y181C mutant infected in human MT2 cells assessed as protection against virus-induced cytopathic effect by MTT assay
[11] = target: recombinant HIV1 reverse transcriptase Y188L mutant; test: Inhibition of recombinant HIV1 reverse transcriptase Y188L mutant
[12] = Inhibition of wild-type HIV1 3B reverse transcriptase infected in human MT4 cells harboring GFP by scanning microscopic analysis
[13] = Inhibition of HIV1 reverse transcriptase Y181C mutant infected in human MT4 cells harboring GFP by scanning microscopic analysis
[14] = Inhibition of HIV1 reverse transcriptase K103N/Y181C double mutant infected in human MT4 cells harboring GFP by scanning microscopic analysis
[15] = Inhibition of HIV1 reverse transcriptase K103N mutant infected in human MT4 cells harboring GFP by scanning microscopic analysis
[16] = target: Reverse transcriptase (Human immunodeficiency virus 1, UniProt Q9WKE8); test: Inhibition of CXCR4 tropic HIV1 3B reverse transcriptase infected in human TZM-bl cells
[17] = Inhibition of CCR5 tropic HIV1 VB59 reverse transcriptase infected in human TZM-bl cells
[18] = Inhibition of CCR5 tropic HIV1 ADA5 reverse transcriptase infected in human TZM-bl cells
[19] = Inhibition of CXCR4 tropic HIV1 UG070 reverse transcriptase infected in human TZM-bl cells
[20] = Inhibition of HIV1 reverse transcriptase K103N/Y188C double mutant infected in human MT4 cells assessed as protection against virus-induced cytopathic effect measured after 4 days by MTT assay
[21] = Inhibition of wild-type HIV1 3B reverse transcriptase infected in human MT4 cells assessed as protection against virus-induced cytopathic effect measured after 4 days by MTT assay
[22] = Inhibition of HIV1 reverse transcriptase K103N mutant infected in human MT4 cells assessed as protection against virus-induced cytopathic effect measured 5 days post infection by MTT assay
[23] = Inhibition of wild-type HIV1 3B reverse transcriptase infected in human MT4 cells assessed as protection against virus-induced cytopathic effect measured 5 days post infection by MTT assay
[24] = Inhibition of HIV1 reverse transcriptase K103N/Y188C double mutant infected in human MT4 cells assessed as protection against virus-induced cytopathic effect measured 5 days post infection by MTT assay
[25] = Inhibition of HIV1 reverse transcriptase E138K mutant infected in human MT4 cells assessed as protection against virus-induced cytopathic effect measured 5 days post infection by MTT assay
[26] = Inhibition of HIV1 RES056 reverse transcriptase K103N/Y181C double mutant infected in human MT4 cells assessed as protection against virus-induced cytopathic effect
[27] = Inhibition of wild-type HIV1 3B reverse transcriptase infected in human MT4 cells assessed as protection against virus-induced cytopathic effect

Row | Structure (SMILES) | IC50 [1] [nM] | IC50 [2] [nM] | IC50 [3] [nM] | IC50 [4] [nM] | IC50 [5] [nM] | IC50 [6] [nM] | IC50 [7] [nM] | also measured
1 | N#Cc1ccc(Nc2cc(N)nc(Cc3c(Cl)cccc3Cl)n2)cc1 | > 100000 | 452 | > 100000 | > 100000 | > 100000 | – | – | –
2 | Cc1cc(Br)cc(C)c1Sc1ccnc(Nc2ccc(C#N)cc2)n1 | 68 | 5.7 | 44 | 39 | 174 | 354 | 3890 | –
3 | Cc1cc(C#N)cc(C)c1Nc1nc(Nc2ccc(C#N)cc2)ncc1C#N | 76 | 0.5 | 8.6 | 2.6 | 91 | 181 | 312 | –
4 | Cc1cc(C#N)cc(C)c1Oc1nc(Nc2ccc(C#N)cc2)ncc1N | 9.3 | 1 | 5.7 | 1.3 | 16 | 14 | 282 | –
5 | N#C/C=C/c1cc(F)c(Nc2nc(NCCCN3CCOCC3)nc(Nc3ccc(C#N)cc3)n2)c(F)c1 | – | – | – | – | – | – | – | EC50 [8]: 5.7 nM; EC50 [9]: 16 nM; EC50 [10]: 75 nM
6 | N#Cc1ccc(Nc2nc(N)cc(Cc3c(Cl)cccc3Cl)n2)cc1 | 175 | 1 | 71 | 12 | 299 | – | – | –
7 | C=Cc1cnc(Nc2ccc(C#N)cc2)nc1Nc1c(C)cc(C)cc1C | 36 | 2.5 | 29 | 5.8 | 35 | 106 | > 100000 | –
8 | CC(=O)Nc1cnc(Nc2ccc(C#N)cc2)nc1Oc1c(C)cc(C#N)cc1C | – | – | – | 3.3 | – | 30 | 205 | –
9 | Cc1cc(C#N)cc(C)c1Nc1nc(Nc2ccc(C#N)cc2)ncc1Br | 9.6 | 0.4 | 3.3 | 0.4 | 7 | 32 | 37 | –
10 | N#Cc1ccc(Nc2nc(N)nc(Cc3c(Cl)cccc3Cl)n2)cc1 | 200 | 6 | 316 | 40 | 398 | – | – | –
11 | Cc1cc(C)c(Nc2ccnc(Nc3ccc(C(N)=O)cc3)n2)c(C)c1 | – | – | – | – | – | – | – | IC50 [11]: < 10000 nM
12 | C#Cc1cnc(Nc2ccc(C#N)cc2)nc1Nc1c(C)cc(C)cc1C | – | – | – | 6.2 | – | 42 | 71 | –
13 | Cc1cc(C#N)cc(C)c1Nc1nc(Nc2ccc(C#N)cc2)ncc1Cl | 14 | 1.2 | 4.7 | 0.9 | 5.2 | 69 | 144 | –
14 | N#C/C=C/c1ccc(Nc2nc(Nc3ccc(C#N)cc3)ncc2C(=O)NCCCN2CCCC2)cc1 | – | – | – | – | – | – | – | EC50 [12]: 0.794 nM; EC50 [13]: 20 nM; EC50 [14]: 16 nM; EC50 [15]: 1 nM
15 | N#C/C=C/c1ccc(Nc2cc(NCCc3ccc(S(N)(=O)=O)cc3)nc(Nc3ccc(C#N)cc3)n2)cc1 | – | – | – | – | – | – | – | EC50 [12]: 16 nM; EC50 [13]: 98 nM; EC50 [14]: 91 nM; EC50 [15]: 389 nM
16 | Cc1cc(C)c(Nc2cc(OCCCN3CCOCC3)nc(Nc3ccc(C#N)cc3)n2)c(C)c1 | – | – | – | – | – | – | – | EC50 [9]: 38 nM; EC50 [10]: 480 nM
17 | Cc1cc(C)c(Nc2nc(N)nc(Nc3ccc(C#N)nc3)n2)c(C)c1 | – | – | – | – | – | – | – | IC50 [16]: 0.131 nM; IC50 [17]: 0.183 nM; IC50 [18]: 0.183 nM; IC50 [19]: 0.784 nM

Row | Structure (SMILES) | IC50 [1] [nM] | IC50 [2] [nM] | IC50 [3] [nM] | IC50 [4] [nM] | IC50 [5] [nM] | IC50 [6] [nM] | IC50 [7] [nM] | also measured
18 | N#Cc1ccc(Nc2nccc(Oc3ccc4ccccc4c3Br)n2)cc1 | – | – | – | – | – | – | – | EC50 [20]: 6570 nM; EC50 [21]: 2.4 nM
19 | N#Cc1ccc(Nc2nccc(Oc3ccc4cc(C#N)ccc4c3Br)n2)cc1 | – | – | – | – | – | – | – | EC50 [20]: 240 nM; EC50 [21]: 2 nM
20 | Cc1cnc(Nc2ccc(C#N)cc2)nc1Nc1c(C)cc(C#N)cc1C | 12 | 0.8 | 16 | 1.7 | 16 | 162 | > 10000 | –
21 | Cc1cc(C#N)cc(C)c1Oc1ccnc(Nc2ccc(C#N)cc2)n1 | 37 | 1.1 | 19 | 2.7 | 73 | 94 | 798 | –
22 | N#Cc1ccc(Nc2cc(Cc3c(Cl)cccc3Cl)nc(N)n2)cc1 | > 100000 | 10 | > 100000 | 33300 | 96600 | – | – | –
23 | Cc1cc(C#N)cc(C)c1Nc1ccnc(Nc2ccc(C#N)cc2)n1 | 7.1 | 0.4 | 7.8 | 1.9 | 34 | 37 | 1090 | –
24 | CN(C)CCNC(=O)c1cnc(Nc2ccc(C#N)cc2)nc1Nc1ccc(/C=C/C#N)cc1 | – | – | – | – | – | – | – | EC50 [12]: 0.794 nM; EC50 [13]: 16 nM; EC50 [14]: 20 nM; EC50 [15]: 0.631 nM
25 | Cc1cc(C)c(Nc2nc(Cl)nc(Nc3ccc(C#N)nc3)n2)c(C)c1 | – | – | – | – | – | – | – | IC50 [16]: 0.124 nM; IC50 [17]: 0.497 nM; IC50 [18]: 0.273 nM; IC50 [19]: 1.12 nM
26 | Cc1cc(C#Cc2cccnc2)cc(C)c1Oc1ccnc(Nc2ccc(C#N)cc2)n1 | – | – | – | – | – | – | – | EC50 [22]: 10 nM; EC50 [23]: 3 nM; EC50 [24]: 935 nM; EC50 [25]: 22 nM
27 | Cc1cc(C#N)cc(C)c1Oc1nc(Nc2ccc(C#N)cc2)ncc1[N+](=O)[O-] | 304 | 18 | 782 | 10 | 121 | 194 | > 10000 | –
28 | N#C/C=C/c1ccc(Nc2cc(NCCCN3CCOCC3)nc(Nc3ccc(C#N)cc3)n2)cc1 | – | – | – | – | – | – | – | EC50 [12]: 20 nM; EC50 [13]: 87 nM; EC50 [14]: 98 nM; EC50 [15]: 219 nM
29 | Cc1cc(/C=C/C#N)cc(C)c1Nc1nc(Nc2ccc(C#N)cc2)nc(OCCCN2CCOCC2)n1 | – | – | – | – | – | – | – | EC50 [9]: 1.3 nM; EC50 [10]: 12 nM
30 | CCN(c1nc(Nc2ccc(C#N)cc2)nc(Oc2c(C)cc(C)cc2C)n1)N1CCOCC1 | – | – | – | – | – | – | – | EC50 [23]: 7.8 nM; EC50 [24]: 650 nM
31 | Cc1cc(C(C#N)c2ccccc2F)nc(Nc2ccc(C#N)cc2)n1 (configuration not stated) | – | – | – | – | – | – | – | EC50 [26]: > 217 nM; EC50 [27]: 1.8 nM
32 | Cc1cc(C)c(Nc2nc(Nc3ccc(C#N)cc3)ncc2-c2ccccc2)c(C)c1 | – | 24 | – | – | – | – | – | –
33 | Cc1cc(C#CCCO)cc(C)c1Oc1ccnc(Nc2ccc(C#N)cc2)n1 | – | – | – | – | – | – | – | EC50 [23]: 3 nM

Source: BindingDB's records for doi:10.1016/j.ejmech.2018.09.013 (Wuhan Institute of Technology, 2018)
